Assay results from PMC8786932, “Bicyclic azetidines target acute and chronic stages of Toxoplasma gondii by inhibiting parasite phenylalanyl t-RNA synthetase” (Nature Communications, 2022).
Values joined by “and” are separate entries in the source; they are usually repeats but may differ in a detail not shown here. Identical values can stand only once. Like-named read-outs stand apart in the source and are kept apart here.

What was measured:
[1] = test system: in vitro induced T. gondii ME49-FLuc bradyzoite cysts; assay: In vitro bradyzoite growth assay, cyst size (3 d induction + 2 d treatment); assay type: cell-based, Toxoplasma gondii; conditions: for Cyst size (individual cysts): area within cyst wall, measured in microns; for effect on cyst size: at the EC90 or 3xEC90, 2 days after 3 days induction
Experimental: To monitor the effects of compounds on early bradyzoite differentiation, ME49-Fluc tachyzoites were inoculated onto HFF monolayers grown on coverslips in 24-well plates and allowed infect during a 2 h incubation in 3% DMEM (DMEM containing glutamine (10 mM), gentamycin (10 μg/mL,) and 3% FBS) at 37°C, 5% CO2. The medium was replaced with RPMI 1640 pH 8.2 and cells were cultured in ambient CO2 at 37°C for 3 days to induce bradyzoites. […] Samples were fixed and stained using biotinylated Dolichos biflorus lectin (DBL) (Vector Laboratories (#B-1035-5) […]) followed by Alexa Fluor 488 streptavidin (Thermo Fischer (#S11223) 1:1,000 dilution) and mouse mAb 8.25.8 anti-BAG1 (from Dr. Louis Wiess) (1:1,100)[56] followed by goat anti-mouse IgG conjugated to Alexa Fluor 568 (Thermo Fischer (#A-1104) 1:1,000). Samples were analyzed using a Zeiss AxioObserver Z1 equipped with Colibri LED illumination using a 40x EC Plan-Neofluar objective (N.A. 1.3) and images were captured using an ORCA-ER digital camera operated using ZEN v3.3 (Carl Zeiss). Cyst size was determined by measuring the area defined by the perimeter of the cyst wall as measured in microns.

[2] = test system: ex vivo T. gondii ME49-FLuc bradyzoites from tissue cysts of chronically infected mice; assay: Ex vivo bradyzoite treatment assay (plaque assay); assay type: cell-based, Toxoplasma gondii; conditions: for growth of ex vivo bradyzoites at EC50: constant treatment, vs DMSO
Experimental: The brains from CBA/J mice chronically infected with the ME49-FLuc strain were harvested, homogenized, and tissue cysts isolated on Percoll gradients, as described previously[9],[27]. Following isolation, purified tissue cysts were treated with acid-pepsin solution ([…] sodium chloride (NaCl), 60 mM hydrochloric acid (HCl) and freshly made pepsin (0.1 mg/mL in 1xPBS) for 10 min at 37 °C. Following acid-pepsin treatment and addition of neutralization buffer (94 mM sodium carbonate (Na2CO3), liberated bradyzoites were equally distributed into 6-well plates with 5 mL culture media containing compounds or vehicle control (0.1–0.2% DMSO final concentration). Plates were incubated undisturbed for 12–14 days followed by fixation in 100% ethanol (ETOH) for 5 min at RT, rinsing with tap water, staining in 0.1% crystal violet solution for 10 min at RT, rinsing in water and air drying. Plaques were quantified on a Zeiss AxioObserver microscope equipped with a ×2.5 objective (Department of Molecular Microbiology Imaging Facility at the Washington University School of Medicine).

in vitro = assay type: cell-based, human; conditions: human, top 20 μM
Experimental: (§1) For the toxicity screen, compounds were tested in 96-well plates using all the wells as no edge affect was observed. Compounds were diluted to 40 μM (2x concentration in 10% DMEM, 0.4% DMSO) before step-wise, 3-fold dilution in 10% DMEM to create 10-dose series (20 μM to 0.001 μM). Host cells were plated in black, μ-Clear 96-well plates (Greiner Bio-One). We compared several lineages including HepG2 (human hepatocellular carcinoma (ATCC-HB-8065)), THP-1 (human monocytic tumor line), SH-SY5Y (human neuroblastoma (ATCC CRL-2266)), A549 (human lung carcinoma (ATCC CRM-CCL-185)) and Caco-2 (human intestinal adenocarcinoma (ATCC HTB-37)) and HFF (primary human foreskin fibroblast) obtained from the laboratory of John Boothroyd at Stanford University. Cells were maintained in culture media according to the formulations recommended by ATCC. Cells were plated at a density (ranging from of 5 × 10^3 to 2 × 10^4 cells/well (100 μL vol)) resulting in sub-confluent monolayers to allow expansion during the 2 day growth assay. THP-1 cells were treated with 10 ng/ml phorbol 12-myristate 13-acetate (PMA) for 24 h to differentiate into macrophages before compound addition. For all other cells, compounds were added at 6 h post seeding to host cells containing plates (200 μL final volume, 0.2% DMSO) and incubated in culture medium at 37 °C supplemented with 5% CO2. At 44 h post compound addition (50 h total growth time), culture media was aspirated and replaced with Live Imaging solution (ThermoFisher) supplemented with 10 μg/mL Hoeschst 33342 (Sigma) for 20 min at 37 °C. […] Alternatively, plates fixed with 4% formaldehyde for 10 min and stained with 10 μg/mL Hoeschst 33342 (Sigma) for 20 min and imaged using a Cytation 3 multi-mode imager (DAPI, 10x objective, 4 images/well) and nuclei quantified using the Gen5 imager software (v3.08). Assays were repeated with two technical replicates within each of two independent biological replicates.
(§2) All statistical analyses were conducted using Prism 9 (GraphPad Software, Inc.). Dose–response inhibition curves for parasite and host cell toxicity screens (EC50 values) were generated using (Log(inhibitor) vs. normalized response—Variable slope) function. […] For multiple comparisons, two-way ANOVA analysis function using either Sidák’s multiple comparisons test or Dunnett’s multiple comparisons test was applied as indicated.

[3] = test system: blood-stage P. falciparum; conditions: Fig 2A Tg_Pf_Cp EC50s; previously reported values, reference not visible in the shown part; cited from earlier work
[4] = test system: SH-SY5Y (human neuroblastoma); assay: in vitro; assay type: cell-based; conditions: EC50 host cell/EC50 T. gondii
Experimental: as §1, §2

[5] = test system: THP-1 (human monocytic tumor line); assay: in vitro; assay type: cell-based; conditions: EC50 host cell/EC50 T. gondii
Experimental: as §1, §2

[6] = Constant treatment, Fig 5H top 4, replicates
[7] = Washout, Fig 5H top 4, replicates
[8] = PMA differentiated, read-out: THP-1 EC50
[9] = nuclei count, 44 h, read-out: A549 EC50
[10] = nuclei count, 44 h, read-out: HFF EC50
[11] = nuclei count, 44 h, read-out: SH-SY5Y EC50
[12] = nuclei count, 44 h after compound addition, read-out: HEPG2 EC50

| SMILES | Cyst size (individual cysts) ([1]; 3XEC90, 2 days) | Cyst size (individual cysts) ([1]; EC90, 2 days) | effect on cyst size [1] | Ex vivo bradyzoite plaques, normalised to DMSO = 100 [2, 6] | growth of ex vivo bradyzoites at EC50 ([2]; EC50 concentration) | Ex vivo bradyzoite plaques, normalised to DMSO = 100 [2, 7] | EC50 (in vitro; [8]) | EC50 (in vitro; [9]) | EC50 (in vitro; [10]) | EC50 (in vitro; [11]) | EC50 (in vitro; [12]) | EC50 [3] | SH-SY5Y fold selectivity [4] | THP-1 fold selectivity [5] | also measured |
| --- | --- | --- | --- | --- | --- | --- | --- | --- | --- | --- | --- | --- | --- | --- | --- |
| COc1ccc(NC(=O)N2CCCCN3[C@H](CN(C)C)[C@H](c4ccc(C#Cc5ccccc5)cc4)[C@@H]3C2)cc1 [BRD7929] | 70.79 and 76.24 and 90.26 and 38.16 and 85.34 and 130.5 and 42.83 and 30.86 and 19.37 and 49.32 and 117.9 and 50.48 and 21.2 and 120.5 and 75.85 and 64.97 and 70.16 and 108.7 and 69.23 and 113 | 112.8 and 142 and 65 and 40.33 and 94.48 and 106.3 and 167.8 and 104.7 and 129.7 and 105.6 and 65.07 and 56.59 and 80.88 and 43.39 and 143.9 and 81.69 and 71.88 and 171.2 and 68.84 and 66.51 | significantly diminished cyst size | 1.0 and 0.2 and 1.9 | only partially reduced growth | 2.174 and 0.37 and 0.00000000 | 672 nM | 5370 nM | 7870 nM | 731 nM | 3060 nM | 13 nM |  |  | growth inhibition of ex vivo bradyzoites ([2]; 3×EC90, constant treatment): 99%; effect after washout ([2]; 3×EC90, short-term (4 h) treatment then washout): sustained following washout; growth inhibition of ex vivo bradyzoites ([2]; EC90, constant treatment): 93%; Ex vivo bradyzoite plaques, normalised to DMSO = 100 ([2]; Washout, EC50 concentration, Fig 5I): 66.67 and 75.15 and 100; Ex vivo bradyzoite plaques, normalised to DMSO = 100 ([2]; Washout, EC90 concentration, Fig 5I): 83.91 |
| COc1ccc(NC(=O)N2CCCCN3[C@H](CN(C)S(C)(=O)=O)[C@H](c4ccc(C#Cc5ccccc5)cc4)[C@@H]3C2)cc1 [BRD8494] | 46.64 and 167.1 and 52.11 and 128.7 and 180.9 and 64.9 and 103 and 36.82 and 65.28 and 41.9 and 105.7 and 87.22 and 144.1 and 114.5 and 214.1 and 103.8 and 343.4 and 159.3 and 37.35 and 133.8 | 112 and 360 and 182.2 and 110.4 and 32.16 and 37.14 and 75.73 and 23.46 and 145.9 and 108.1 and 145.1 and 279 and 170.3 and 246.7 and 83.16 and 29.6 and 216.4 and 92.48 and 64.36 and 16.16 | significantly diminished cyst size | 0.5 and 0.2 and 1.9 | did not inhibit the growth | 1.087 and 0.74 and 4.5 | 461 nM | > 20000 nM | > 20000 nM | 1780 nM | > 20000 nM | 26 nM | 51.0 fold | 13.2 fold | Ex vivo bradyzoite plaques, normalised to DMSO = 100 ([2]; Constant, EC50 concentration, Fig 5J): 100 and 95.62 and 97.45; growth of ex vivo bradyzoites at higher concentrations ([2]; EC90 and 3×EC90, constant treatment): nearly eliminated growth; Ex vivo bradyzoite plaques, normalised to DMSO = 100 ([2]; Washout, 3xEC90 concentration, Fig 5J): 97.62 and 100; Ex vivo bradyzoite plaques, normalised to DMSO = 100 ([2]; Washout, EC50 concentration, Fig 5J): 100 and 96.6 and 91.18; Ex vivo bradyzoite plaques, normalised to DMSO = 100 ([2]; Washout, EC90 concentration, Fig 5J): 100 |
| CN(C[C@@H]1[C@H](c2ccc(C#Cc3ccccc3)cc2)[C@@H]2CN(C(=O)Nc3ccc(OC4CC4)cc3)CCCCN12)S(C)(=O)=O [BRD2987] | 210 and 276.2 and 29.32 and 152.5 and 78.3 and 34.32 and 25.15 and 91.33 and 112.7 and 36.9 and 64.42 and 29.43 and 70.1 and 40.53 and 119.9 and 26.89 and 53.28 and 150.6 and 151.3 and 93.74 | 236.6 and 67.46 and 53.54 and 238 and 123.3 and 64.95 and 39.29 and 138.8 and 102.4 and 187.5 and 285.6 and 103.1 and 283.5 and 243.7 and 89.72 and 170.5 and 68.94 and 144.9 and 116.2 and 59.27 | significantly diminished cyst size | 0.5 and 0.7 and 3.9 |  | 6.522 and 15.2 and 18.2 | 255 nM | 2170 nM | > 20000 nM | 2360 nM | > 20000 nM | 2 nM | 123.9 fold | 13.4 fold |  |
| COc1ccc(NC(=O)N2CCCCN3[C@H](CO)[C@H](c4ccc(C#Cc5ccccc5)cc4)[C@@H]3C2)cc1 [BRD3444] | 55.84 and 108.4 and 18.78 and 55.57 and 227.1 and 49.46 and 37.83 and 273.6 and 101.6 and 179.3 and 249.8 and 34.55 and 88.71 and 51.38 and 34.99 and 140.8 and 42.55 and 30.36 and 52.48 and 90.45 | 20.97 and 95.37 and 274.5 and 251.3 and 190.7 and 326.2 and 209.9 and 125.4 and 65.68 and 59.54 and 81.3 and 20.04 and 43.73 and 427 and 253.3 and 87.22 and 217.7 and 114.5 and 214.1 and 137.7 | significantly diminished cyst size | 0.5 and 0.2 and 1.9 |  | 1.087 and 0.00000000 and 9.1 | 2580 nM | > 20000 nM | > 20000 nM | 2660 nM | 11300 nM | 12 nM | 91.9 fold | 88.9 fold |  |
